Laboratory results taken from PMC11184370 (RSC Advances, 2024).
Read-outs that look alike come from different tables or passages of the source.

Key:
[1] = Solution stability by UV-visible spectroscopy in PBS; type: physicochemical; settings: PBS pH 7.2 / DMSO, 2.5 × 10^−5 M, up to 48 h
ctDNA [2] = test: UV-visible absorption titration with ctDNA; type: binding, calf thymus; settings: Tris–HCl buffer pH 7.2
[3] = test system: HeLa cervical carcinoma cells; test: MTT in vitro cytotoxicity, HeLa; type: cell-based, human; settings: for Selective index (SI), HeLa: vs WI38; for IC50: read-out: In vitro cytotoxicity IC50, HeLa
[4] = target: T1, Bovine serum albumin (BSA) (Bos taurus, UniProt P02769); test: BSA absorption titration; type: binding; settings: λmax = 278 nm
T1 sequence (P02769 25-607): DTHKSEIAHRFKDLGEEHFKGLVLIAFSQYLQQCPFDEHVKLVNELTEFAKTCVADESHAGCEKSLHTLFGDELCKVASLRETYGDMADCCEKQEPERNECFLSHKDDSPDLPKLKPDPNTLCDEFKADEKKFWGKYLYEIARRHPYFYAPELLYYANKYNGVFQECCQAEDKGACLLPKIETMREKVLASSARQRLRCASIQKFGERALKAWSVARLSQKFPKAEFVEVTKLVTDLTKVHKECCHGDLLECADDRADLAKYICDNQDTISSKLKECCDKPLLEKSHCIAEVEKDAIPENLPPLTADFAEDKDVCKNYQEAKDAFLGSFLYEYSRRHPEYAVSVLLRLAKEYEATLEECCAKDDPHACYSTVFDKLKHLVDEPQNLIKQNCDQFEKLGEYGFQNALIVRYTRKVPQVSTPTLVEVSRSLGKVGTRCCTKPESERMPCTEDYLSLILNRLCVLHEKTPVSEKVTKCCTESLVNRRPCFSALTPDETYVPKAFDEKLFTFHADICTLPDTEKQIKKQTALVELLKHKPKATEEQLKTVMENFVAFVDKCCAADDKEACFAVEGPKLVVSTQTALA

[5] = target: T1, Bovine serum albumin (BSA); test: BSA fluorescence quenching; type: binding; settings: λmax = 345 nm; for Quenching rate constant (Kq), BSA emission: τ0 = 10^−8 s
ctDNA [6] = test: Ethidium bromide displacement, fluorescence quenching of EB-ctDNA adduct; type: binding, calf thymus; settings: λem = 580 nm; for Quenching constant (Ksv), emission spectroscopy, ctDNA: EB 5 μM, DNA 50 μM, [Q] 10–200 μM
[7] = test system: WI38 normal lung fibroblast cells; test: MTT in vitro cytotoxicity, WI38; type: cell-based, human; settings: read-out: In vitro cytotoxicity IC50, WI38
[8] = test system: MCF7 breast carcinoma cells; test: MTT in vitro cytotoxicity, MCF7; type: cell-based, human; settings: for Selective index (SI), MCF7: vs WI38; for IC50: read-out: In vitro cytotoxicity IC50, MCF7
tRNA [9] = test: UV-visible absorption titration with tRNA; type: binding, yeast; settings: Tris–HCl buffer pH 7.2
tRNA [10] = test: Ethidium bromide displacement, fluorescence quenching of EB-tRNA adduct; type: binding, yeast; settings: λem = 580 nm; for Quenching constant (Ksv), emission spectroscopy, tRNA: EB 5 μM, RNA 50 μM, [Q] 10–200 μM
[11] = test system: HeLa cervical carcinoma cells; settings: read-out: In vitro cytotoxicity IC50, HeLa; 48 h ref [85]; cited from earlier work
[12] = test system: MCF7 breast carcinoma cells; settings: read-out: In vitro cytotoxicity IC50, MCF7; 24 h ref [84]; cited from earlier work
HeLa cells [13] = test: Cell cycle distribution by flow cytometry; type: cell-based, human; settings: IC50 concentration, 24 h, control 20.3%
HeLa cells [14] = test: Annexin V/propidium iodide flow cytometry; type: cell-based, human; settings: IC50, 24 h

Compound	Solution stability (changes of UV-visible spectrum with time) [1]	% H* (hypochromism), absorption spectroscopy, ctDNA (ctDNA [2])	Selective index (SI), HeLa ([3]; 24 h)	Selective index (SI), HeLa ([3]; 48 h)	IC50 ([3]; 24 h)	IC50 ([3]; 48 h)	% hyper (hyperchromism), BSA absorption spectroscopy [4]	% hypo, BSA emission spectroscopy [5]	Number of binding sites (n), BSA emission [5]	Stern–Volmer quenching constant (Ksv), BSA emission [5]	Quenching rate constant (Kq), BSA emission [5]	% H, emission spectroscopy, ctDNA (ctDNA [6])	Quenching constant (Ksv), emission spectroscopy, ctDNA (ctDNA [6])	IC50 ([7]; 24 h)	IC50 ([7]; 48 h)	Selective index (SI), MCF7 ([8]; 24 h)	IC50 ([8]; 24 h)	IC50 ([8]; 48 h)	% H* (hypochromism), absorption spectroscopy, tRNA (tRNA [9])	% H, emission spectroscopy, tRNA (tRNA [10])	other results
3-acetylcoumarin benzoylhydrazone [HL]	insignificant changes up to the first 3 h then suffered hydrolysis in the aqueous media through the next 24 h	8.35%	1.15	1.57	61.6 ± 3.1 µM	47.6 ± 2.9 µM	39.03%	27.18%	0.93	2.33 × 10^4	2.33e+12 M⁻¹ s⁻¹	32.4%	0.34 ×10^4	71.1 ± 3.4 µM	75 ± 3.5 µM	1.74	40.8 ± 2.6 µM	36.8 ± 2.4 µM	7.20%	26.1%	Selective index (SI), MCF7 ([8]; 48 h): 2.03; Quenching constant (Ksv), emission spectroscopy, tRNA (tRNA [10]): 1.19 ×10^4
N.N.[Cl][Pt][Cl] [Cisplatin, cis-platin]	–	–	–	–	–	–	–	–	–	–	–	–	–	–	–	–	–	–	–	–	IC50 [11]: 67.6 ± 2 µM; IC50 [12]: 31.2 ± 1.8 µM
[Ag(HL)2]NO3 [Complex C3]	slight decrease in absorption intensity	6.81%	1.93	1.95	39.1 ± 2.5 µM	32.5 ± 2.3 µM	40.74%	35.69%	0.92	4.98 × 10^4	4.98e+12 M⁻¹ s⁻¹	50.1%	0.52 ×10^4	75.4 ± 3.6 µM	63.6 ± 3.3 µM	1.28	58.8 ± 2.9 µM	54 ± 3 µM	6.66%	26.9%	Quenching constant (Ksv), emission spectroscopy, tRNA (tRNA [10]): 1.6 ×10^4
[Pt(HL)Cl]Cl [Complex C2]	insignificant changes during the 48 h test	10.4%	3.63	4.95	8.12 ± 0.7 µM	6.31 ± 0.4 µM	11.90%	42.63%	1.03	5.39 × 10^4	5.39e+12 M⁻¹ s⁻¹	54.2%	1.42 ×10^4	29.5 ± 2.2 µM	31.3 ± 2.2 µM	2.39	12.3 ± 0.9 µM	8.61 ± 0.6 µM	7.60%	48.8%	Cells in G2/M phase (HeLa cells [13]): 20.3%; Selective index (SI), MCF7 ([8]; 48 h): 3.63; Change of necrotic cells compared to untreated HeLa cells (HeLa cells [14]): 1.6 fold; Quenching constant (Ksv), emission spectroscopy, tRNA (tRNA [10]): 4.51 ×10^4
